Where “and” joins values, the source holds several entries; their conditions need not be identical. Equal entries are not always repeated. Where two headings read alike, the source gives them in different places.
Experiments:
[1] = Solubility comparison of RAD51 inhibitors; type: physicochemical; details: for appearance of the 1 mM solution in H2O/DMSO: 1 mM in H2O/DMSO
Experimental: A comparison of the solubility of selected compounds of the present invention with known RAD51 inhibitors was carried out.
Aqueous samples of the mesylate salt were readily prepared and were suitable for testing in inhibition assays. Exemplary solutions were prepared as follows:
soluble in water−1.0 mg JKYN-1-mes+75.9 μl of water=20 mM (13.2 mg/ml)
Exemplary solutions were prepared as follows:
IBR2 was soluble in DMSO to at least 166.8 mM (66.7 mg/ml). Exemplary solutions were prepared as follows:
IBR120 is soluble in DMSO to at least 20 mM (7.77 mg/ml).

[2] = background section; cited from earlier work
[3] = test system: most tested cancer cell lines; details: cited from earlier work
HEK293 = assay: Proliferation assay, normal cell line surrogate HEK293; type: cell-based, human; details: HEK293, single agent, 4 days
Experimental: (§1) Proliferation assays: Cells are maintained in minimum essential medium alpha plus 10% fetal bovine serum and penicillin (50 units/mL)/streptomycin (50 mg/L) (growth medium). Cultures are incubated in a humidified atmosphere of 5% CO2 at 37° C. Rapidly proliferating cells are used to establish cultures of experimental cells, which are allowed to adhere overnight in 96-well plates or 25-cm^2 flasks prior to manipulation.
(§2) Exposure to chemotherapy drugs and combinations thereof: Cells are grown in 96-well plates and treated with simultaneous exposure to a single drug or a combination of two drugs at the concentrations indicated. The relative cell density is determined after 4 days by viability staining (alamarBlue© or neutral red).
(§3) The relative density of cells treated with two agents is normalized to the density observed for a respectively treated “second agent” control. The concentration of drug that inhibits proliferation by 50% (IC50 value) is interpolated from plotted data. The change in the IC50 value of a chemotherapy drug caused by the presence of the second agent is determined as a percent of the IC50 of the first drug alone. […] This methodology, previously reported (Ferguson et al., 2009; Blake et al., 2017; Ferguson et al., 2018), provides a quantitative, concentration-dependent representation of the magnitude of the drug interaction. […]

CCD841 = assay: Proliferation assay, normal cell line surrogate CCD841; type: cell-based, human; details: CCD841, single agent, 4 days
Experimental: as §1, §2, §3

HK-2 = assay: Proliferation assay, normal cell line surrogate HK-2; type: cell-based, human; details: HK-2, single agent, 4 days
Experimental: as §1, §2, §3

normal cells = assay: Toxicity on normal cells (summary of the normal cell line surrogates); type: cell-based, human; details: normal cell surrogates HEK293, CCD841, HK-2, read-out: toxicity (IC50) on normal cells, approximate
Experimental: as §1, §2
(§4) The relative density of cells treated with two agents is normalized to the density observed for a respectively treated “second agent” control. The concentration of drug that inhibits proliferation by 50% (IC50 value) is interpolated from plotted data. The change in the IC50 value of a chemotherapy drug caused by the presence of the second agent is determined as a percent of the IC50 of the first drug alone. Enhancement of cytotoxicity is indicated by a decrease in the IC50 value. This methodology, previously reported (Ferguson et al., 2009; Blake et al., 2017; Ferguson et al., 2018), provides a quantitative, concentration-dependent representation of the magnitude of the drug interaction.
FIG. 23 graphically depicts the toxicity effect on normal (not fully tumorigenic) cell line surrogates resulting from exposure to JKYN-1 (base). The cell line surrogates include: HEK293 (human embryonic kidney transformed with adenovirus 5 DNA); CCD841 (human embryonic colonic epithelial, untransformed); and HK-2 (human kidney proximal tubule, papilloma).

[4] = test system: pancreatic cancer cell line (PANC-1); assay: Proliferation assay, PANC-1; type: cell-based; details: for inhibition of proliferation compared with IBR120: range of concentrations
Experimental: as §1, §2, §4

NSCLC cell line A549b = assay: Proliferation assay, A549b; type: cell-based; details: for inhibition of proliferation compared with IBR120: range of concentrations
Experimental: as §1, §2, §4

NSCLC cell line H1650 = assay: Proliferation assay, NSCLC cell line H1650; type: cell-based
Experimental: as §1, §2, §4

[5] = test system: prostate carcinoma cell line LNCaP; assay: Proliferation assay, LNCaP; type: cell-based
Experimental: as §1, §2, §4

[6] = test system: MCF-7 breast carcinoma cell line; assay: Proliferation assay, MCF-7; type: cell-based
Experimental: as §1, §2, §4

[7] = test system: N87 stomach carcinoma cell line; assay: Proliferation assay, N87; type: cell-based
Experimental: as §1, §2, §4

MDA-MB-231 = assay: Proliferation assay, MDA-MB-231; type: cell-based; details: Homo sapiens; MDA-MB-231, single agent
Experimental: as §1, §2
(§5) The relative density of cells treated with two agents is normalized to the density observed for a respectively treated “second agent” control. The concentration of drug that inhibits proliferation by 50% (IC50 value) is interpolated from plotted data. The change in the IC50 value of a chemotherapy drug caused by the presence of the second agent is determined as a percent of the IC50 of the first drug alone. […] This methodology, previously reported (Ferguson et al., 2009; Blake et al., 2017; Ferguson et al., 2018), provides a quantitative, concentration-dependent representation of the magnitude of the drug interaction.

[8] = test system: DU145 prostate carcinoma cell line; assay: Proliferation assay, DU145; type: cell-based
Experimental: as §1, §2, §5

With `O=S(=O)(Cc1ccccc1)N1Cc2ccccc2[C@@H]1c1c[nH]c2ccccc12` [IBR120] the “appearance of the 1 mM solution in H2O/DMSO” value (from here on “appearance … in H2O/DMSO”) [1] was “a little bit cloudy”, the “solution of 25 mg/ml in 100% DMSO” value ([1]; 25 mg/ml, 100% DMSO) was “dissolves well” and the “solubility in DMSO” value [1] was “at least 20 mM and ≥ 7.77 mg/ml”. The “appearance of the 1 mM H2O/DMSO solution diluted 1:10 or more in water” value [1] was “clear”, the “solubility in water” value ([1]; water) was “insoluble in water” and the “aqueous solubility (background statement)” value [2] was “low aqueous solubility”.
For `O=S(=O)(Cc1ccccc1)N1C=Cc2ccccc2C1c1c[nH]c2ccccc12` (centres unmarked) [IBR2], the “appearance … in H2O/DMSO” value [1] was “slightly cloudy”, the “solubility in DMSO” value [1] was “at least 166.8 mM and ≥ 66.7 mg/ml” and the “upper limit of solubility in H2O/DMSO” value ([1]; H2O/DMSO) was roughly 1000 µM. The “appearance of the 1 mM H2O/DMSO solution diluted 1:10 or more in water” value [1] was “clear”, the “solubility in water” value ([1]; water) was “insoluble in water” and the “aqueous solubility (background statement)” value [2] was “low aqueous solubility”. The IC50 [3] was 12 to 20 µM.
In the case of `CN1CCN(c2ccc(-c3ccc4c(c3)[C@H](c3c[nH]c5ccccc35)N(S(=O)(=O)Cc3ccccc3)C4)cc2)CC1` [Compound 1, (R)-3-(2-(Benzylsulfonyl)-6-(4-(4-methylpiperazin-1-yl)phenyl)isoindolin-1-yl)-1H-indole], the “solubility in water at 10 mg/ml” value [1] is reported as “not very soluble in water”, the “appearance … in H2O/DMSO” value [1] is reported as “less cloudy than 1 mM IBR120” and the IC50 (HEK293; Homo sapiens, HEK293, 96 h) is reported as 4.16 µM. It also gave an IC50 (CCD841; Homo sapiens, CCD-841, 96 h) of 5.71 µM, an IC50 (HK-2; Homo sapiens, HK-2, 96 h) of 3.92 µM and an IC50 (normal cells; listed as JKYN-1) of 4 to 6 µM. For the same molecule, the “inhibition of proliferation compared with IBR120” value (shortened to “inhibition … compared with IBR120”) ([4]; PANC-1, single agent) was “superior activity” and the “inhibition … compared with IBR120” value (NSCLC cell line A549b; single agent) was “superior activity”.
In the case of `CN1CCN(c2ccc(-c3ccc4c(c3)[C@H](c3c[nH]c5ccccc35)N(S(=O)(=O)Cc3ccccc3)C4)cc2)CC1.CS(=O)(=O)O` [JKYN-1-mesylate, (R)-3-(2-(Benzylsulfonyl)-6-(4-(4-methylpiperazin-1-yl)phenyl)isoindolin-1-yl)-1H-indole, Mesylate Salt], the “solubility in water” value [1] is reported as “highly soluble in water”, the solubility ([1]; water, thermodynamic from solid) is reported as ≥ 13200 µg/mL and ≥ 20000 µM and the IC50 (HEK293; Mesylate Salt) is reported as 2.89 µM. For the same molecule, the IC50 (CCD841; Mesylate Salt) was 3.68 µM, the IC50 (HK-2; Mesylate Salt) was 3.42 µM and the IC50 (normal cells; Homo sapiens) was 3 to 4 µM. For the same molecule, the IC50 (normal cells; Mesylate Salt) was 3 to 4 µM, the “decrease of the IC50 value of osimertinib” value (NSCLC cell line H1650; H1650, combination with osimertinib) was “up to 75%” and the “combination effect with osimertinib” value (NSCLC cell line H1650; H1650, range of concentrations) was “synergistic effect”. The IC50 (NSCLC cell line H1650; H1650, single agent, Mesylate Salt, read-out: IC50) was no less than 4 µM, the IC50 (NSCLC cell line H1650; Homo sapiens, NCI-H1650, H1650, 6 μM osimertinib, read-out: IC50 of JKYN-1-mesylate in the presence of osimertinib) was roughly 2 µM and the IC50 (NSCLC cell line H1650; Homo sapiens, NCI-H1650, H1650, single agent, read-out: IC50) was 3.95 µM. The IC50 ([5]; Homo sapiens, single agent) was 3.36 ± 0.37 µM, the “decrease of the IC50 value of enzalutamide” value ([5]; combination with enzalutamide) was “up to 30%” and the “combination effect with enzalutamide” value ([5]; range of concentrations) was “synergistic effect”. The IC50 ([6]; Homo sapiens, MCF7, MCF-7, about 5 μM (or more) 4-OH-tamoxifen, read-out: IC50 of JKYN-1-mesylate in the presence of 4-OH-tamoxifen) was no more than 1.5 µM, the IC50 ([6]; Homo sapiens, MCF7, MCF-7, single agent, read-out: IC50) was 4.36 ± 0.42 µM and the “decrease of the IC50 value of 4-OH-tamoxifen” value ([6]; MCF-7, combination with 4-OH-tamoxifen) was “up to 80%”. The “combination effect with 4-OH-tamoxifen” value ([6]; MCF-7, range of concentrations) was “synergistic effect”, the IC50 ([6]; MCF-7, single agent, Mesylate Salt, read-out: IC50) was 4 to 5 µM and the “combination effect with regorafenib” value ([7]; N87) was “synergistic effect”. The “decrease of the IC50 value of regorafenib” value ([7]; N87, combination with regorafenib) was “up to 54%”, the IC50 ([7]; N87, single agent) was 2.21 ± 1.13 µM and the IC50 ([4]; Homo sapiens, PANC-1, single agent) was 4.69 ± 1.14 µM. For the same molecule, the “combination effect with afatinib” value ([4]; PANC-1, combination with afatinib) was “positive (synergistic) effect”, the “inhibition … compared with IBR120” value ([4]; PANC-1, single agent) was “superior activity” and the IC50 (MDA-MB-231) was 5.66 ± 0.36 µM. For the same molecule, the “effect on inhibition by regorafenib” value (NSCLC cell line A549b; combination with regorafenib) was “potentiates regorafenib”, the IC50 (NSCLC cell line A549b; single agent) was 3.96 ± 0.44 µM and the “inhibition … compared with IBR120” value (NSCLC cell line A549b; single agent) was “superior activity”. For the same molecule, the “effect on inhibition by enzalutamide” value ([8]; DU145, combination with enzalutamide) was “enhanced enzalutamide toxicity” and the “combination effect with enzalutamide” value ([8]; DU145, range of concentrations) was “synergistic effect”.
